Measured values from patent publication US11690810B2, “Combination treatment of bacterial infection” (The Chinese University of Hong Kong, priority 2018, dated 2023).
Where two headings read alike, the source gives them in different places.

What was measured:
Assay in all cases: MIC and checkerboard (FIC) assay
[1] = test system: S. aureus SA-RN4220-pUL5054 (RN4220); conditions: Staphylococcus aureus
MRSA SA-ST239 = conditions: for MIC: Staphylococcus aureus, MRSA; for FIC / MIC combine: ST239
CA-MRSA strain ST30 = type: cell-based, Staphylococcus aureus; conditions: Staphylococcus aureus, MRSA
[2] = test system: S. aureus SA-ANT4′ (ANT4), resistant to fusidic acid; conditions: Staphylococcus aureus, read-out: Minimum inhibitory concentration to compound (MIC)
[3] = test system: S. aureus SA-1199B (NorA efflux pump overexpressed); conditions: Staphylococcus aureus, read-out: Minimum inhibitory concentration to compound (MIC), 1199B′; Table 8
[4] = test system: S. aureus SA-APH2″-AAC6′ (APH2), resistant to gentamicin; conditions: for MIC: Staphylococcus aureus
[5] = test system: S. aureus SA-APH3′ (APH3), resistant to kanamycin; conditions: Staphylococcus aureus, read-out: Minimum inhibitory concentration to compound (MIC)
HA MRSA W233 = test system: HA MRSA W233
HA MRSA W231 = test system: HA MRSA W231
HA MRSA W238 = test system: HA MRSA W238
[6] = read-out: Activity (MIC, μg/ml)
[7] = read-out: Minimum inhibitory concentration to compound (MIC)
[8] = ST30, Table 8, read-out: Minimum inhibitory concentration to compound (MIC)
[9] = ST30, read-out: Activity (MIC, μg/ml)
[10] = APH2″-AAC6′, ECG with WQD-169 (Kuraridin)

Row | Molecule | MIC [1, 6] | MIC (MRSA SA-ST239; [6]) | MIC (CA-MRSA strain ST30; [6]) | MIC [2] | MIC (MRSA SA-ST239; read-out: MIC alone) | MIC [3] | MIC [1, 7] | MIC ([4]; read-out: MIC alone) | MIC [4, 7] | MIC (CA-MRSA strain ST30; [8]) | MIC (CA-MRSA strain ST30; [9]) | MIC [5] | also measured
1 | C=C(C)C(CC=C(C)C)Cc1c(OC)cc(OC)c(C(=O)/C=C/c2ccc(OCOC)cc2OCOC)c1OC (centres unmarked) [Compound A] | > 256 µg/mL | – | – | – | – | – | – | – | – | – | – | – | –
2 | C=C(C)C(CC=C(C)C)Cc1c(OC)cc(OC)c(C(=O)/C=C/c2ccc(O)cc2)c1OC (centres unmarked) [WQD-101] | > 256 µg/mL | > 256 µg/mL | > 256 µg/mL | – | – | – | – | – | – | – | – | – | –
3 | C=C(C)C(CC=C(C)C)Cc1c(O)cc(OC)c(C(=O)/C=C/c2ccc(O)cc2)c1O (centres unmarked) [WQD-175] | – | 4 µg/mL | – | 8 µg/mL | 4 µg/mL | 8 µg/mL | 8 µg/mL | 4 µg/mL | 4 µg/mL | 16 µg/mL | 16 µg/mL | 4 µg/mL | FIC (MRSA SA-ST239; ECG with WQD-175): 1; MIC combine (MRSA SA-ST239; ECG with WQD-175): 4 µg/mL; FIC ([4]; APH2″-AAC6′, ECG with WQD-175): 1; MIC combine ([4]; APH2″-AAC6′, ECG with WQD-175): 4 µg/mL
4 | C=C(C)C(CC=C(C)C)Cc1c(O)cc(OC)c(C(=O)/C=C/c2ccc(O)cc2O)c1O (centres unmarked) [WQD-169, (E)-1-(2,4-dihydroxy-6-methoxy-3-(5-methyl-2-(prop-1-en-2-yl)hex-4-en-1-yl)phenyl)-3-(2,4-dihydroxyphenyl)prop-2-en-1-one] | – | 8 µg/mL | – | 8 µg/mL | 8 µg/mL | 8 µg/mL | 8 µg/mL | – | 8 µg/mL | 8 µg/mL | 8 µg/mL | 8 µg/mL | FIC (MRSA SA-ST239; ECG with WQD-169 (Kuraridin)): 0.5; MIC combine (MRSA SA-ST239; ECG with WQD-169 (Kuraridin)): 4 µg/mL; FIC [4, 10]: 0.25; MIC combine [4, 10]: 2 µg/mL; MIC alone ([4]; Strain APH2″-AAC6′, Table 9): 8 µg/mL
5 | C=C(C)C(CC=C(C)C)Cc1c(O)cc(OC)c(C(=O)/C=C/c2ccccc2O)c1O (centres unmarked) [WQD-165] | – | 4 µg/mL | – | 8 µg/mL | 4 µg/mL | 8 µg/mL | 8 µg/mL | 4 µg/mL | 4 µg/mL | 32 µg/mL | 32 µg/mL | 4 µg/mL | FIC (MRSA SA-ST239; ECG with WQD-165): 1; MIC combine (MRSA SA-ST239; ECG with WQD-165): 4 µg/mL; FIC ([4]; APH2″-AAC6′, ECG with WQD-165): 1; MIC combine ([4]; APH2″-AAC6′, ECG with WQD-165): 4 µg/mL
6 | C=C(C)C(CC=C(C)C)Cc1c(OC)cc(OC)c(C(=O)/C=C/c2ccc(O)cc2O)c1OC (centres unmarked) [Compound B] | 64 µg/mL | – | – | – | – | – | – | – | – | – | – | – | –
7 | C=C(C)C(CC=C(C)C)Cc1c(OC)cc(OC)c(C(=O)/C=C/c2ccc(OCc3ccccc3)cc2OCc2ccccc2)c1OC (centres unmarked) [WQD-8] | > 256 µg/mL | > 256 µg/mL | > 256 µg/mL | – | – | – | – | – | – | – | – | – | –
8 | gentamicin [reference compound] | – | – | – | – | – | – | – | – | – | – | – | – | MIC alone (HA MRSA W233; W233 (gentamicin resistant)): 512 µg/mL; FIC (HA MRSA W233; W233, ECG+Kur+Gen): 0.03; MIC combine (HA MRSA W233; W233, ECG+Kur+Gen): 16 µg/mL; MIC alone ([4]; APH2 (gentamicin resistant)): > 512 µg/mL; MIC alone ([4]; APH2 (gentamicin resistant), listed as Gen): 512 µg/mL; FIC ([4]; APH2, ECG+Kur+Gen): 0.0312; MIC combine ([4]; APH2, ECG+Kur+Gen): 16 µg/mL; MIC alone (HA MRSA W231; W231 (gentamicin resistant)): 64 µg/mL; FIC (HA MRSA W231; W231, ECG+Kur+Gen): 0.015; MIC combine (HA MRSA W231; W231, ECG+Kur+Gen): 1 µg/mL; MIC alone (HA MRSA W238; W238 (gentamicin resistant)): 512 µg/mL; FIC (HA MRSA W238; W238, ECG+Kur+Gen): 0.03; MIC combine (HA MRSA W238; W238, ECG+Kur+Gen): 16 µg/mL
9 | C=C(C)C(CC=C(C)C)Cc1c(O)cc(OC)c(C(=O)/C=C/c2ccc(O)cc2OC)c1O (racemic) [WQD-164, (E)-1-(2,4-dihydroxy-6-methoxy-3-(5-methyl-2-(prop-1-en-2-yl)hex-4-en-1-yl)phenyl)-3-(4-hydroxy-2-methoxyphenyl)prop-2-en-1-one] | – | 32 µg/mL | – | 32 µg/mL | 32 µg/mL | 64 µg/mL | 64 µg/mL | 16 µg/mL | 16 µg/mL | 128 µg/mL | 128 µg/mL | 32 µg/mL | FIC (MRSA SA-ST239; ECG with WQD-164): 0.50; MIC combine (MRSA SA-ST239; ECG with WQD-164): 4 µg/mL; FIC ([4]; APH2″-AAC6′, ECG with WQD-164): 0.50; MIC combine ([4]; APH2″-AAC6′, ECG with WQD-164): 8 µg/mL
10 | C=C(C)C(CC=C(C)C)Cc1c(OC)cc(OC)c(C(=O)/C=C/c2ccccc2O)c1OC (centres unmarked) [WQD-98] | > 256 µg/mL | > 256 µg/mL | > 256 µg/mL | – | – | – | – | – | – | – | – | – | –
